Source: patent US12466821B2 (Novartis AG, priority 2018, dated 2025)

Key:
[1] = molecular target: human HSV DNA polymerase UL30 (Human herpesvirus 1 (strain 17) (HHV-1) (Human herpes simplex virus 1), UniProt P04293); test: HSV polymerase biochemical assay (molecular beacon-based)
Protocol: (§1) Both human CMV DNA polymerase UL54 and human HSV DNA polymerase UL30 were produced as N-terminal MBP fusion of the full length, wild type recombinant proteins in order to enhance soluble expression in insect cell expression system. The proteins were expressed in sf9 insect cells via baculovirus transduction and cells were harvested after 48 hours. The soluble proteins were purified using the standard Ni-IMAC purification strategy via the N-terminal hexa-Histidine tag, followed by heparin affinity chromatography. Both of the final MBP fusion proteins were more than 90% pure and the yield of UL54 was up to 1.8 mg per liter culture while UL30 was up to 15 mg per liter culture. All purification steps were performed on ice, with buffers chilled on ice and FPLC fraction collectors set at 6° C. […] UL30 protein was stored in buffer containing 20 mM HEPES, pH7.0, 420 mM NaCl, 20% glycerol, 6 mM Imidazole, and 0.8 mM DTT at−80° C.
(§2) DNA polymerase activity was measured using a molecular beacon-based assay, as described in Ma et. al.
(§3) 100 pM CMV polymerase or 625 pM HSV polymerase was added to a buffer containing 20 mM Tris, pH=7.5, 100 mM NaCl, 10 mM MgCl2, 0.01% Tween-20, 0.5 mM EDTA, 10% Sucrose and 1 mM DTT. The inhibitor was pre-incubated with the polymerase for 30 minutes at room temperature. Reactions were initiated by the addition of a mixture containing 1.25 uM dATP, 1.25 uM dCTP, 1.25 uM dTTP, 1.25 uM dGTP, 200 nM Primer B (5′-GAC GGG AAG-3′5′-GAC GGG AAG-3′) and 100 nM molecular beacon (5′-5,6-FAM-CCTCTCCGTGTCTTGTACTTCCCGTCAGAGAGG-BHQ1-3′). For human CMV polymerase the reactions were incubated for 60 minutes at room temperature. For HSV polymerase the reactions were incubated for 20 minutes at room temperature. The reactions were then read on a Perkin-Elmer EnVision 2101 reader (fluorescence) using an excitation of 480 nm and emission of 535 nm. 1050s were determined using an internal Novartis software (Helios).
as §3, with “nm.” for “nm. 1050s were determined using an internal Novartis software (Helios).”

[2] = molecular target: human CMV DNA polymerase UL54 (Human cytomegalovirus (strain AD169) (HHV-5) (Human herpesvirus 5), UniProt P08546); test: CMV polymerase biochemical assay (molecular beacon-based)
Protocol: as §1, §2, §3
as §3, with “nm.” for “nm. 1050s were determined using an internal Novartis software (Helios).”

[3] = system: Luciferase-encoding HCMV, AD169 strain; test: CMV Luciferase assay (cellular herpesvirus replication); type: cell-based; conditions: Human betaherpesvirus 5, AD169, read-out: CMV-Luc Cellular EC50
Protocol: For all viral assays, 10 mM DMSO stock compound solutions were serially diluted in DMSO at 3.16 fold dilutions in 96-well clear round bottom plates. Compounds were then diluted in assay media at 1:20 and subsequently 10 μL of these dilutions were added to cells for final compound concentrations ranging either from 0.0159 μM to 50 μM in 0.5% DMSO/assay media, or from 0.00318 to 10 μM in 0.5% DMSO/assay media.
The assay uses a Luciferase-encoding HCMV. Luciferase is expressed under the control of a late viral gene (pp28) promoter in the AD169 strain, so that expression of the reporter is dependent on viral DNA replication. Compounds that affect any stage from viral entry to DNA replication result in a change in luciferase levels.
Viral replication in the presence or absence of compounds was measured by luciferase activity according to the following procedure: Neo-natal normal human dermal fibroblast cells (NN-NHDF, from ATCC cat #201-010) were seeded at 9,000 cells/well in 96-well white solid bottom plate at 80 uL/well in assay media: 2% FBS, 4 mM GlutaMax® (Invitrogen cat #35050) in DMEM/high glucose/no glutamine/no phenol red media (Invitrogen cat #31053). After 2 hrs at 37° C., 10 uL of compound diluted in assay media or 5% DMSO (final 0.5% DMSO/well) was added and the plates returned to 37° C. One hour later, 10 uL of virus diluted in assay media was added at a final Multiplicity of infection (MOI) of 1. Plates were incubated at 37° C. for 72 hrs. At 72 hours post-infection (hpi), plates were equilibrated to room temperature. After 25 min, 100 uL Renilla-Glo® Luciferase Assay Reagent (Promega cat # E2750) was added to each well and incubated for 10 min. Plates were covered to protect from light. Luminescence was measured on the PHERAstar FS®.
The following controls were included in the data analysis: No virus, no compound (0.5% DMSO)=IC (maximal inhibitory control); Virus, no compound (0.5% DMSO)=NC (neutral control). Data were analyzed using an internal Novartis software (Helios). The means of the controls (NC, IC) were used to normalize the results to a % scale using the formula: % Control=100−(100*(Sample value−NC)/(IC−NC)).
For each compound, the software derived an EC50 using a 4-parameter logistical model.

Compound: C[C@H](CCO)S(=O)(=O)C1(CN2CCn3c(ccc(C(=O)NCc4ccc(Cl)cc4)c3=O)C2=O)CC1 (single isomer, unassigned) [Example 6, N-(4-chlorobenzyl)-2-((1-((4-hydroxybutan-2-yl)sulfonyl)cyclopropyl)methyl)-1,6-dioxo-2,3,4,6-tetrahydro-1H-pyrido[1,2-a]pyrazine-7-carboxamide]
- IC50 [1]: 54.8 nM
- IC50 [2]: 2.4 nM
- EC50 [3]: 92.8 nM

Compound: C[C@@H](CCO)S(=O)(=O)C1(CN2CCn3c(ccc(C(=O)NCc4ccc(Cl)cc4)c3=O)C2=O)CC1 (single isomer, unassigned) [Example 7, N-(4-chlorobenzyl)-2-((1-((4-hydroxybutan-2-yl)sulfonyl)cyclopropyl)methyl)-1,6-dioxo-2,3,4,6-tetrahydro-1H-pyrido[1,2-a]pyrazine-7-carboxamide]
- IC50 [1]: 35.6 nM
- IC50 [2]: 1 nM
- EC50 [3]: 32.8 nM

Compound: C[C@@H](CCO)S(=O)(=O)C1(CN2CCn3c(ccc(C(=O)NCc4ccc(C#N)cc4)c3=O)C2=O)CC1 (single isomer, unassigned) [Example 8, N-(4-cyanobenzyl)-2-((1-((4-hydroxybutan-2-yl)sulfonyl)cyclopropyl)methyl)-1,6-dioxo-2,3,4,6-tetrahydro-1H-pyrido[1,2-a]pyrazine-7-carboxamide]
- IC50 [1]: 111 nM
- IC50 [2]: 4.6 nM
- EC50 [3]: 784 nM

Compound: C[C@H](CCO)S(=O)(=O)C1(CN2CCn3c(ccc(C(=O)NCc4ccc(C#N)cc4)c3=O)C2=O)CC1 (single isomer, unassigned) [Example 9, N-(4-cyanobenzyl)-2-((1-((4-hydroxybutan-2-yl)sulfonyl)cyclopropyl)methyl)-1,6-dioxo-2,3,4,6-tetrahydro-1H-pyrido[1,2-a]pyrazine-7-carboxamide]
- IC50 [1]: 73.8 nM
- IC50 [2]: 1.7 nM
- EC50 [3]: 167 nM

Compound: C[S@@+]([O-])C1(CN2CCn3c(ccc(C(=O)NCc4ccc(Cl)cc4)c3=O)C2=O)CC1 (single isomer, unassigned) [Example 67-2, N-(4-chlorobenzyl)-2-((1-(methylsulfinyl)cyclopropyl)methyl)-1,6-dioxo-2,3,4,6-tetrahydro-1H-pyrido[1,2-a]pyrazine-7-carboxamide]
- IC50 [1]: 1120 nM
- IC50 [2]: 35.8 nM
- EC50 [3]: 478 nM

Compound: C[S@+]([O-])C1(CN2CCn3c(ccc(C(=O)NCc4ccc(Cl)cc4)c3=O)C2=O)CC1 (single isomer, unassigned) [Example 67-3, N-(4-chlorobenzyl)-2-((1-(methylsulfinyl)cyclopropyl)methyl)-1,6-dioxo-2,3,4,6-tetrahydro-1H-pyrido[1,2-a]pyrazine-7-carboxamide]
- IC50 [1]: 13100 nM
- IC50 [2]: 292 nM
- EC50 [3]: 7250 nM

Compound: C[S@@](=N)(=O)C1(CN2CCn3c(ccc(C(=O)NCc4ccc(Cl)cc4)c3=O)C2=O)CC1 (single isomer, unassigned) [Example 96-1]
- IC50 [1]: 372 nM
- IC50 [2]: 12.6 nM
- EC50 [3]: 244 nM

Compound: C[S@](=N)(=O)C1(CN2CCn3c(ccc(C(=O)NCc4ccc(Cl)cc4)c3=O)C2=O)CC1 (single isomer, unassigned) [Example 96-2]
- IC50 [1]: 1920 nM
- IC50 [2]: 66.5 nM
- EC50 [3]: 847 nM

Compound: N#Cc1ccc(CNC(=O)c2ccc3n(c2=O)CCN(CC2(S(=O)(=O)[C@H]4CC4(F)F)CC2)C3=O)cc1 (single isomer, unassigned) [Example 100-1]
- IC50 [1]: 48.2 nM
- IC50 [2]: 1.4 nM
- EC50 [3]: 93.6 nM

Compound: N#Cc1ccc(CNC(=O)c2ccc3n(c2=O)CCN(CC2(S(=O)(=O)[C@@H]4CC4(F)F)CC2)C3=O)cc1 (single isomer, unassigned) [Example 100-2]
- IC50 [1]: 39.5 nM
- IC50 [2]: 1 nM
- EC50 [3]: 43.1 nM

Compound: N#Cc1ccc(CNC(=O)c2ccc3n(c2=O)CCN(CC2(S(=O)(=O)[C@H]4CC4(F)F)CC2)C3=O)cc1F (single isomer, unassigned) [Example 101-1]
- IC50 [1]: 48.7 nM
- IC50 [2]: 1 nM
- EC50 [3]: 55.5 nM

Compound: N#Cc1ccc(CNC(=O)c2ccc3n(c2=O)CCN(CC2(S(=O)(=O)[C@@H]4CC4(F)F)CC2)C3=O)cc1F (single isomer, unassigned) [Example 101-2]
- IC50 [1]: 32.9 nM
- IC50 [2]: 0.6 nM
- EC50 [3]: 29.6 nM

Compound: N#Cc1ccc(CNC(=O)c2ccc3n(c2=O)CCN(CC2(S(=O)(=O)[C@H]4CC4(F)F)CC2)C3=O)cc1Cl (single isomer, unassigned) [Example 102-1]
- IC50 [1]: 199 nM
- IC50 [2]: 2 nM
- EC50 [3]: 229 nM

Compound: N#Cc1ccc(CNC(=O)c2ccc3n(c2=O)CCN(CC2(S(=O)(=O)[C@@H]4CC4(F)F)CC2)C3=O)cc1Cl (single isomer, unassigned) [Example 102-2]
- IC50 [1]: 162 nM
- IC50 [2]: 1.5 nM
- EC50 [3]: 85.2 nM

Compound: O=C(NCc1ccc(Cl)cc1)c1ccc2n(c1=O)CCN(CC1(S(=O)(=O)C3CC3)CC1)C2=O [Example 2]
- IC50 [1]: 15.5 nM
- IC50 [2]: 0.2 nM
- EC50 [3]: 8.1 nM

Compound: N#Cc1ccc(CNC(=O)c2ccc3n(c2=O)CCN(CC2(S(=O)(=O)C4CC4)CC2)C3=O)cc1F [Example 3-1]
- IC50 [1]: 38.1 nM
- IC50 [2]: 0.8 nM
- EC50 [3]: 17.7 nM

Compound: O=C(NCc1ccc(F)cc1)c1ccc2n(c1=O)CCN(CC1(S(=O)(=O)C3CC3)CC1)C2=O [Example 3-2]
- IC50 [1]: 78.7 nM
- IC50 [2]: 3 nM
- EC50 [3]: 84.8 nM

Compound: CN(CCN1CCn2c(c(Br)cc(C(=O)NCc3ccc(Cl)cc3)c2=O)C1=O)S(C)(=O)=O [Example 122, 9-bromo-N-(4-chlorobenzyl)-2-(2-(N-methylmethylsulfonamido)ethyl)-1,6-dioxo-1,3,4,6-tetrahydro-2H-pyrido[1,2-a]pyrazine-7-carboxamide]
- IC50 [1]: 5050 nM
- IC50 [2]: 350 nM

Compound: CS(=O)(=O)CCCN1CCn2c(c(Br)cc(C(=O)NCc3ccc(Cl)cc3)c2=O)C1=O [Example 123, 9-bromo-N-(4-chlorobenzyl)-2-(3-(methylsulfonyl)propyl)-1,6-dioxo-1,3,4,6-tetrahydro-2H-pyrido[1,2-a]pyrazine-7-carboxamide]
- IC50 [1]: 1890 nM
- IC50 [2]: 373 nM

Compound: CS(=O)(=O)CCCN1CCn2c(c(CF)cc(C(=O)NCc3ccc(Cl)cc3)c2=O)C1=O [Example 142]
- IC50 [1]: 2160 nM
- IC50 [2]: 351 nM
